According to patent US20070111929A1, “Methods for the treatment of anxiety and for identification of anxiolytic agents” (Wyeth, priority 2005, published 2007):

Columns and labels:
AT4 receptor = target: T1, AT4 receptor (Mus musculus, UniProt Q8C129); assay: mouse 4-plate model of anxiety, AT4 alone (Example 1); assay type: in vivo; conditions: acute; for number of punished crossings compared to vehicle: subcutaneous, 30 min before test, male Swiss Webster mice
T1 construct: from tissue; host or cells: whole living Swiss Webster mouse (in vivo behavioural test)
T1 sequence (Q8C129 1-1025): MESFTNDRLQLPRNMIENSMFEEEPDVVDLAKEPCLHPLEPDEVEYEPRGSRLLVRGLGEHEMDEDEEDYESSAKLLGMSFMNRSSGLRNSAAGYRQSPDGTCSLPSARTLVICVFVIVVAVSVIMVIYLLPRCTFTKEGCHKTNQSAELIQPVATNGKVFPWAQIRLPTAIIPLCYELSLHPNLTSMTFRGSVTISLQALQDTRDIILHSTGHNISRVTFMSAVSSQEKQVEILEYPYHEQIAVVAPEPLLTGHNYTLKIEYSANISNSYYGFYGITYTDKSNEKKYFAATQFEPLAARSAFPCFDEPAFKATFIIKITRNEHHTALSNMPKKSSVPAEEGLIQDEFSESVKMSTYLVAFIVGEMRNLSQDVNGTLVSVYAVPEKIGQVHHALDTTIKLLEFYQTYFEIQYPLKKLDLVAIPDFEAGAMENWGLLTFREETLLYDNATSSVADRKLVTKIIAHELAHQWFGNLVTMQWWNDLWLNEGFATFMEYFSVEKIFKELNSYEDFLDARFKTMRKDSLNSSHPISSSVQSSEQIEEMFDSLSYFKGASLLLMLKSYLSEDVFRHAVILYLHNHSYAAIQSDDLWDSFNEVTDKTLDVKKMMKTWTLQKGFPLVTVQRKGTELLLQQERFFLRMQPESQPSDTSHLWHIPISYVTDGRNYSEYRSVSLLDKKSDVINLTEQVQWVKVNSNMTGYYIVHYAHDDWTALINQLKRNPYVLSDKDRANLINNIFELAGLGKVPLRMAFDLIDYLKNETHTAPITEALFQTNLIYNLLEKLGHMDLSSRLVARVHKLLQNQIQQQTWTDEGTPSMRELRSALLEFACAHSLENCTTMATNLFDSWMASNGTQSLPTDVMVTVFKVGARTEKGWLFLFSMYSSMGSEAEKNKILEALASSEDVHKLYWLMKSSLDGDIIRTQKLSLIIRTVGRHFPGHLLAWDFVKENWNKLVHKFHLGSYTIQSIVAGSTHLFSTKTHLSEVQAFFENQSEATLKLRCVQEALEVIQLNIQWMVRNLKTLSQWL
Experimental: Male Swiss Webster mice weighing 18-24 g were used in the 4 plate studies. Animals were housed in groups of 15 in an AAALAC-accredited facility (Wyeth Research, Princeton, N.J.) with food and water available ad libitum. Animals were maintained on a 12-hour light/dark cycle (lights on at 0600) with all studies performed during the light phase. On the day of experiments, mice were injected with AT4 (0, 1, 3 and 10 mg/kg) 30 minutes before the start of the study. Initially, mice were individually placed in a plexiglass cage (18×25×16 cm) with a floor consisting of four rectangular metal plates (8×11 cm), which are wired to a shock generator (Med Associates). In each experiment, mice were placed into the chamber and given an 18-sec habituation period, which was followed by a 1-min test session. After the habituation period, an electric shock (0.8 mA) was delivered for 3.0 sec when mice crossed from one plate to another. The crossing from one plate to the next is referred to as a “punished crossing.” The number of punished crossings during a 1-min test period was recorded by a computer. The mean number of punished crossings for each group was expressed as a percentage of the value observed in the control animals. Data were subjected to an overall one-way analysis of variance (ANOVA) and post-hoc comparisons were made by a contrast using least squares. Significant differences in treatment occurred when p<0.05 compared to vehicle.

oxytocin receptor = target: T2, oxytocin receptor (Mus musculus, UniProt P97926); assay: mouse 4-plate model, AT4 with the oxytocin receptor antagonist WAY-162720 (Example 2); assay type: in vivo; conditions: AT4 3 mg/kg alone, acute, 30 min before test
T2 construct: from tissue; host or cells: whole living Swiss Webster mouse (in vivo behavioural test)
T2 sequence (P97926 1-388): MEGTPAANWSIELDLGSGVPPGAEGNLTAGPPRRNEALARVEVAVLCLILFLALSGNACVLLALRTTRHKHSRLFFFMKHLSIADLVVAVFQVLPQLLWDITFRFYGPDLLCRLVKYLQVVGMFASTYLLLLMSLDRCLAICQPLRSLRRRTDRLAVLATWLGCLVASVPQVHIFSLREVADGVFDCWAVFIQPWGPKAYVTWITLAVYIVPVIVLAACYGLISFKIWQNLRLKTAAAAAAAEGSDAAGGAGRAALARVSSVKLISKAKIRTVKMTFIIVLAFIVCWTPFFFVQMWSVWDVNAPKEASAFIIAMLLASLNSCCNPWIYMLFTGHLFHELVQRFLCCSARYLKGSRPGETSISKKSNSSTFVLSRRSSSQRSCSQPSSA
Experimental: Male Swiss Webster mice weighing 18-24 g were used in the 4 plate studies. […] Animals were maintained on a 12-hour light/dark cycle (lights on at 0600) with all studies performed during the light phase. On the day of experiments, mice were injected with AT4 (0, 1, 3 and 10 mg/kg) 30 minutes before the start of the study. Initially, mice were individually placed in a plexiglass cage (18×25×16 cm) with a floor consisting of four rectangular metal plates (8×11 cm), which are wired to a shock generator (Med Associates). In each experiment, mice were placed into the chamber and given an 18-sec habituation period, which was followed by a 1-min test session. After the habituation period, an electric shock (0.8 mA) was delivered for 3.0 sec when mice crossed from one plate to another. The crossing from one plate to the next is referred to as a “punished crossing.” The number of punished crossings during a 1-min test period was recorded by a computer. […] Data were subjected to an overall one-way analysis of variance (ANOVA) and post-hoc comparisons were made by a contrast using least squares. Significant differences in treatment occurred when p<0.05 compared to vehicle.
For these studies, the same 4-plate procedures were used as described in Example 1, above. […] A 3-sec time followed the delivery of each shock and a computer recorded the number of punished crossings during a 1-min test period. […]

CC[C@H](C)[C@H](NC(=O)[C@H](Cc1ccc(O)cc1)NC(=O)[C@@H](N)C(C)C)C(=O)N[C@@H](Cc1cnc[nH]1)C(=O)N1CCC[C@H]1C(=O)N[C@@H](Cc1ccccc1)C(=O)O [AT4, Val-Tyr-Ile-His-Pro-Phe]
number of punished crossings compared to vehicle (AT4 receptor; AT4 3 mg/kg): significantly (p<0.05) increased
number of punished crossings compared to vehicle (AT4 receptor; AT4 10 mg/kg): significantly (p<0.05) increased
anxiolytic-like effect in the 4-plate model, dose dependence (AT4 receptor; AT4 1, 3 and 10 mg/kg subcutaneous, FIG. 1): dose-dependent
number of punished crossings compared to vehicle control (oxytocin receptor): increased
